row,Structure (SMILES),melting point
1,"COc1ccc(-c2ccc(C(=O)Nc3ccc4nc(CN5CCCCC5)ccc4c3)cn2)cc1 [Example 60, 6-(4-Methoxyphenyl)-N-[2-(1-piperidinylmethyl)-6-quinolinyl]nicotinamide]",210 to 211 °C (dec.)
2,"O=C(Nc1ccc2nc(CN3CCCC3)ccc2c1)c1ccc(-c2ccc(F)cc2)cc1 [Example 7, 4′-Fluoro-N-[2-(1-pyrrolidinylmethyl)-6-quinolinyl][1,1′-biphenyl]-4-carboxamide]",190 to 193 °C
3,"O=C(Nc1ccc2nc(CN3CCCCC3)ccc2c1)N1CCC(c2ccc(Cl)cc2)CC1 [Example 63, 4-(4-Chlorophenyl)-N-[2-(1-piperidinylmethyl)-6-quinolinyl]-1-piperidinecarboxamide]",214 to 217 °C (dec.)
4,"O=C(Nc1ccc2nc(CN3CCCCC3)ccc2c1)c1ccc(-c2ccc(Cl)cc2)nc1 [Example 57, 6-(4-Chlorophenyl)-N-[2-(1-piperidinylmethyl)-6-quinolinyl]nicotinamide]",215 to 218 °C (dec.)
5,"CC1CCN(c2ccc(C(=O)Nc3ccc4nc(CN5CCCC5)ccc4c3)cc2)CC1 [Example 21, 4-(4-Methyl-1-piperidinyl)-N-[2-(1-pyrrolidinylmethyl)-6-quinolinyl]benzamide]",200 to 202 °C
6,"Cc1ccc(-c2ccc(C(=O)Nc3ccc4nc(CN(C)C)ccc4c3)cn2)cc1 [Example 17, N-[2-[(Dimethylamino)methyl]-6-quinolinyl]-6-(4-methylphenyl)nicotinamide]",220 to 222 °C
7,"Cc1ccc(-c2ccc(C(=O)Nc3ccc4nc(CN5CCCCC5)ccc4c3)cc2)cc1 [Example 55, 4′-Methyl-N-[2-(1-piperidinylmethyl)-6-quinolinyl][1,1′-biphenyl]-4-carboxamide]",198 to 200 °C
8,"O=C(Nc1ccc2nc(CN3CCCC3)ccc2c1)c1ccc(-c2ccc(F)cc2)nc1 [Example 45, 6-(4-Fluorophenyl)-N-[2-(1-pyrrolidinylmethyl)-6-quinolinyl]nicotinamide]",210 °C
9,"O=C(Nc1ccc2nc(CN3CCCC3)ccc2c1)c1ccc(-c2ccc(Cl)cc2)cc1 [Example 8, 4′-Chloro-N-[2-(1-pyrrolidinylmethyl)-6-quinolinyl][1,1′-biphenyl]-4-carboxamide]",200 to 202 °C
10,"O=C(Nc1ccc2nc(CN3CCCC3)ccc2c1)N1CCC(c2ccccc2)CC1 [Example 39, 4-Phenyl-N-[2-(1-pyrrolidinylmethyl)-6-quinolinyl]-1-piperidinecarboxamide]",187 to 189 °C
11,O=C(Oc1ccc2cc(CN3CCCC3)ccc2c1)N1CCC(c2ccc(F)cc2)CC1,106 to 108 °C
12,"COc1ccc(-c2ccc(C(=O)Nc3ccc4nc(CN5CCCCC5)ccc4c3)cc2)cc1 [Example 56, 4′-Methoxy-N-[2-(1-piperidinylmethyl)-6-quinolinyl][1,1′-biphenyl]-4-carboxamide]",192 to 194 °C
13,"O=C(Nc1ccc2nc(CN3CCCC3)ccc2c1)C1CCN(c2ccc(Cl)cc2)CC1 [Example 52, 1-(4-Chlorophenyl)-N-[2-(1-pyrrolidinylmethyl)-6-quinolinyl]-4-piperidinecarboxamide]",204 to 206 °C
14,"Cc1ccc(-c2ccc(C(=O)Nc3ccc4nc(CN5CCCC5)ccc4c3)cn2)cc1 [Example 46, 6-(4-Methylphenyl)-N-[2-(1-pyrrolidinylmethyl)-6-quinolinyl]nicotinamide]",207 to 209 °C
15,"O=C(Nc1ccc2nc(CN3CCOCC3)ccc2c1)c1ccc(-c2ccc(F)cc2)cc1 [Example 13, 4′-Fluoro-N-[2-(4-morpholinylmethyl)-6-quinolinyl][1,1′-biphenyl]-4-carboxamide]",211 to 212 °C
16,"O=C(Nc1ccc2nc(CN3CCCC3)ccc2c1)N1CCC(c2ccc(Cl)cc2)CC1 [Example 40, 4-(4-Chlorophenyl)-N-[2-(1-pyrrolidinylmethyl)-6-quinolinyl]-1-piperidinecarboxamide]",205 °C (dec.)
17,"COc1ccc(-c2ccc(C(=O)Nc3ccc4nc(CN5CCCC5)ccc4c3)cc2)cc1 [Example 62, 4′-Methoxy-N-[2-(1-pyrrolidinylmethyl)-6-quinolinyl][1,1′-biphenyl]-4-carboxamide]",197 to 199 °C
18,"O=C(Nc1ccc2nc(CN3CCCCC3)ccc2c1)c1ccc(-c2ccccc2)cc1 [Example 54, N-[2-(1-Piperidinylmethyl)-6-quinolinyl][1,1′-biphenyl]-4-carboxamide]",186 to 188 °C
19,COc1ccc(C2CCN(C(=O)Oc3ccc4cc(CN5CCCC5)ccc4c3)CC2)cc1,127 to 129 °C
20,"O=C(Nc1ccc2nc(CN3CCCC3)ccc2c1)c1ccc(-c2ccccc2)cc1 [Example 43, N-[2-(1-Pyrrolidinylmethyl)-6-quinolinyl][1,1′-biphenyl]-4-carboxamide]",181 to 183 °C
21,"O=C(Nc1ccc2nc(CN3CCCCC3)ccc2c1)c1ccc(-c2ccc(F)cc2)nc1 [Example 59, 6-(4-Fluorophenyl)-N-[2-(1-piperidinylmethyl)-6-quinolinyl]nicotinamide]",209 to 210 °C (dec.)
22,"O=C(Nc1ccc2nc(CN3CCCCC3)ccc2c1)c1ccc(-c2ccc(Cl)cc2)cc1 [Example 10, 4′-Chloro-N-[2-(1-piperidinylmethyl)-6-quinolinyl][1,1′-biphenyl]-4-carboxamide]",211 to 213 °C

# More lines, now with the values ahead:
row,melting point,Structure (SMILES)
1,184 to 186 °C,"Cc1ccc(C2CCN(C(=O)Nc3ccc4nc(CN(C(C)C)C(C)C)ccc4c3)CC2)cc1 [Example 139, N-[2-[(Diisopropylamino)methyl]-6-quinolinyl]-4-(4-methylphenyl)-1-piperidinecarboxamide]"
2,209 to 211 °C,"O=C(Nc1ccc2cc(CN3CCCC3)ccc2c1)N1CCC(c2ccc(F)cc2)CC1 [Example 99, 4-(4-Fluorophenyl)-N-[6-(1-pyrrolidinylmethyl)-2-naphthyl]-1-piperidinecarboxamide]"
3,211 to 213 °C,"Cc1ccc(-c2ccc(C(=O)Nc3ccc4nc(CN(C(C)C)C(C)C)ccc4c3)cn2)cc1 [Example 137, N-[2-[(Diisopropylamino)methyl]-6-quinolinyl]-6-(4-methylphenyl)nicotinamide]"
4,223 to 225 °C,"COc1ccc(-c2ccc(C(=O)Nc3ccc4nc(CN(C(C)C)C(C)C)ccc4c3)cc2)cc1 [Example 134, N-[2-[(Diisopropylamino)methyl]-6-quinolinyl]-4′-methoxy[1-1′-biphenyl]-4-carboxamide]"
5,212 to 220 °C (dec.),"CC1=NCCN1Cc1ccc2cc(NC(=O)c3ccc(-c4ccccc4)cc3)ccc2n1 [Example 93, N-[2-[(2-Methyl-4,5-dihydro-1H-imidazol-1-yl)methyl]-6-quinolinyl][1,1′-biphenyl]-4-carboxamide]"
6,194 to 196 °C,"COc1ccc(C2CCN(C(=O)Nc3ccc4cc(CN5CCCC5)ccc4c3)CC2)cc1 [Example 100, 4-(4-Methoxyphenyl)-N-[6-(1-pyrrolidinylmethyl)-2-naphthyl]-1-piperidinecarboxamide]"
7,180 to 181 °C,"C[C@@H]1CCC[C@H](C)N1Cc1ccc2cc(NC(=O)c3ccc(-c4ccccc4)cc3)ccc2n1 [Example 80, N-[2-[(cis-2,6-Dimethyl-1-piperidinyl)methyl]-6-quinolinyl][1,1′-biphenyl]-4-carboxamide]"
8,244 to 246 °C,"CC1(C)CCCC(C)(C)N1Cc1ccc2cc(NC(=O)c3ccc(-c4ccc(Cl)cc4)cc3)ccc2c1 [Example 123, 4′-Chloro-N-[6-[(2,2,6,6-tetramethyl-1-piperidinyl)methyl]-2-naphthyl][1,1′-biphenyl]-4-carboxamide]"
9,210 to 212 °C,"Cc1ccc(C2CCN(C(=O)Nc3ccc4cc(CN5CCCC5)ccc4c3)CC2)cc1 [Example 103, 4-Methylphenyl-N-[6-(1-pyrrolidinylmethyl)-2-naphthyl]-1-piperidinecarboxamide]"
10,177 to 178 °C (dec.),"Cc1ccc(C2CCN(C(=O)Nc3ccc4nc(CN5[C@H](C)CCC[C@@H]5C)ccc4c3)CC2)cc1 [Example 86, 4-(4-Methylphenyl)-N-[2-[(cis-2,6-dimethyl-1-piperidinyl)methyl]-6-quinolinyl]-1-piperidinecarboxamide]"
11,181 to 182 °C,"O=C(Nc1ccc2nc(CN3CCCCC3)ccc2c1)c1ccc(-c2ccc(F)cc2F)cc1 (hydrate or solvate) [Example 68, 2′,4′-Difluoro-N-[2-(1-piperidinylmethyl)-6-quinolinyl][1,1′-biphenyl]-4-carboxamide]"
12,246 to 250 °C,"CC(C)N(Cc1ccc2cc(NC(=O)c3ccc(-c4ccc(Cl)cc4)cc3)ccc2c1)C(C)C [Example 124, 4′-Chloro-N-[6-[(diisopropylamino)methyl]-2-naphthyl][1,1′-biphenyl]-4-carboxamide]"
13,172 to 174 °C,"COC[C@@H]1CCCN1Cc1ccc2cc(NC(=O)c3ccc(-c4ccc(Cl)cc4)cc3)ccc2n1 [Example 117, 4′-Chloro-N-[2-[[(2S)-2-(methoxymethyl)pyrrolidinyl]-methyl]-6-quinolinyl][1,1′-biphenyl]-4-carboxamide]"
14,203 to 204 °C (dec.),"O=C(Nc1ccc2nc(CN3CCCCC3)ccc2c1)N1CCC(c2ccc(F)cc2)CC1 [Example 65, 4-(4-Fluorophenyl)-N-[2-(1-piperidinylmethyl)-6-quinolinyl]-1-piperidinecarboxamide]"
15,201 to 203 °C,"CC(C)N(Cc1ccc2cc(NC(=O)c3ccc(-c4ccc(Cl)cc4)nc3)ccc2n1)C(C)C [Example 138, 6-(4-Chlorophenyl)-N-[2-[(diisopropylamino)methyl]-6-quinolinyl]nicotinamide]"
16,212 to 216 °C (dec.),"O=C(Nc1ccc2nc(CN3CCN=C3c3ccccc3)ccc2c1)c1ccc(-c2ccccc2)cc1 [Example 94, N-[2-[(2-Phenyl-4,5-dihydro-1H-imidazol-1-yl)methyl]-6-quinolinyl][1,1′-biphenyl]-4-carboxamide]"

# Reference: patent publication US6930185B2, “Melanin-concentrating hormone antagonist” (Takeda Chemical Industries, Ltd., priority 2000, dated 2005)
